Measurements reported in patent publication US20100076015A1, “Aminopyridine Derivatives” (VANTIA LIMITED, priority 2008, published 2010).
pIC50: −log10 of the molar value.

Target: T1, Human KLK1 (Homo sapiens, UniProt P06870)
T1 construct: purchased Callbiochem (Calbiochem)
Test: Determination of the IC50 for KLK1 (fluorogenic substrate H-DVal-Leu-Arg-AFC)
Format: biochemical
Conditions: 37° C.
Description: Determination of the IC50 for KLK1
KLK1 inhibitory activity in vitro was determined using standard published methods (see e.g. Johansen et al., Int. J. Tiss. Reac. 1986, 8, 185; Shori et al., Biochem. Pharmacol., 1992, 43, 1209; Stürzebecher et al., Biol. Chem. Hoppe-Seyler, 1992, 373, 1025). Human KLK1 (Callbiochem) was incubated at 37° C. with the fluorogenic substrate H-DVal-Leu-Arg-AFC and various concentrations of the test compound. Residual enzyme activity (initial rate of reaction) was determined by measuring the change in optical absorbance at 410 nm and the IC50 value for the test compound was determined.

T1 sequence (P06870 25-262): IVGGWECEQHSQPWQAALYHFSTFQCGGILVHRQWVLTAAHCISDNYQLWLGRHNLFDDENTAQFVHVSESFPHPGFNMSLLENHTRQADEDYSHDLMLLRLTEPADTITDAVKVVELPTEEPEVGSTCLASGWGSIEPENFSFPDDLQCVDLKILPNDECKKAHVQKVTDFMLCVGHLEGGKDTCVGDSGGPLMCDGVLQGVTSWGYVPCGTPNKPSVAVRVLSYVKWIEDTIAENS

Point of comparison: `Nc1ccc(CNC(=O)[C@H](Cc2ccc(Cl)c(Cl)c2)NC(=O)[C@H]2CCCN2Cc2ccccc2)cn1` [Example 7, (R)-1-Benzyl-pyrrolidine-2-carboxylic acid [(S)-1-[(6-amino-pyridin-3-ylmethyl)-carbamoyl]-2-(3,4-dichloro-phenyl)-ethyl]-amide], pIC50 7.98. Against it:
- CCC(C)[C@H](C(=O)N[C@@H](Cc1ccc(F)c(F)c1)C(=O)NCc1ccc(N)nc1)N(C)C (stereo partly drawn) [Example 358, (R)-2-Dimethylamino-3-methyl-pentanoic acid [(S)-1-[(6-amino-pyridin-3-ylmethyl)-carbamoyl]-2-(3,4-difluoro-phenyl)-ethyl]-amide] — the same, 7.98
- Nc1ccc(CNC(=O)[C@H](Cc2ccc(F)c(F)c2)NC(=O)[C@H]2CCCN2Cc2ccccc2)cn1 [Example 140, (R)-1-Benzyl-pyrrolidine-2-carboxylic acid [(S)-1-[(6-amino-pyridin-3-ylmethyl)-carbamoyl]-2-(3,4-difluoro-phenyl)-ethyl]-amide] — 0.39 log units higher, 8.37
- Nc1ccc(CNC(=O)[C@H](Cc2ccc(Cl)c(Cl)c2)NC(=O)[C@H]2C=CCN2)cn1 [Example 65, (R)-2,5-Dihydro-1H-pyrrole-2-carboxylic acid [(S)-1-[(6-amino-pyridin-3-ylmethyl)-carbamoyl]-2-(3,4-dichloro-phenyl)-ethyl]-amide] — 0.59 log units higher, 8.57
- CN1Cc2ccccc2C[C@@H]1C(=O)N[C@@H](Cc1ccc(F)c(F)c1)C(=O)NCc1ccc(N)nc1 [Example 149, (R)-2-Methyl-1,2,3,4-tetrahydro-isoquinoline-3-carboxylic acid [(S)-1-[(6-amino-pyridin-3-ylmethyl)-carbamoyl]-2-(3,4-difluoro-phenyl)-ethyl]-amide] — 0.55 log units lower, 7.43
- Cc1nc(N)ccc1CNC(=O)[C@@H](Cc1ccc(Cl)c(Cl)c1)NC(=O)[C@H]1CCCN1C [Example 190, (R)-1-Methyl-pyrrolidine-2-carboxylic acid [(R)-1-[(6-amino-2-methyl-pyridin-3-ylmethyl)-carbamoyl]-2-(3,4-dichloro-phenyl)-ethyl]-amide] — 0.76 log units higher, 8.74
- CC(C(=O)N[C@@H](Cc1ccc(F)c(F)c1)C(=O)NCc1ccc(N)nc1)N1CCCCC1 (stereo partly drawn) [Example 354, N-[(S)-1-[(6-Amino-pyridin-3-ylmethyl)-carbamoyl]-2-(3,4-difluoro-phenyl)-ethyl]-2-piperidin-1-yl-propionamide] — within 0.2 log units, 7.94
- COc1ccc(C[C@H](NC(=O)c2cc3ccccc3[nH]2)C(=O)NCc2ccc(N)nc2)cc1 [Example 334, 1H-Indole-2-carboxylic acid [(S)-1-[(6-amino-pyridin-3-ylmethyl)-carbamoyl]-2-(4-methoxy-phenyl)-ethyl]-amide] — 1.35 log units lower, 6.63
- Cc1cc(C)c(C(=O)N[C@@H](Cc2ccc(F)cc2)C(=O)NCc2ccc(N)nc2C)[nH]1 [Example 285, 3,5-Dimethyl-1H-pyrrole-2-carboxylic acid [(S)-1-[(6-amino-2-methyl-pyridin-3-ylmethyl)-carbamoyl]-2-(4-fluoro-phenyl)-ethyl]-amide] — 0.21 log units higher, 8.19
- CC(C)N1CCC[C@@H]1C(=O)N[C@@H](Cc1cccc(Cl)c1)C(=O)NCc1ccc(N)nc1 [Example 120, (R)-1-Isopropyl-pyrrolidine-2-carboxylic acid [(S)-1-[(6-amino-pyridin-3-ylmethyl)-carbamoyl]-2-(3-chloro-phenyl)-ethyl]-amide] — 0.82 log units higher, 8.80
- Cc1ccccc1C[C@H](NC(=O)[C@H]1CCCN1C(C)C)C(=O)NCc1ccc(N)nc1 [Example 121, (R)-1-Isopropyl-pyrrolidine-2-carboxylic acid {(S)-1-[(6-amino-pyridin-3-ylmethyl)-carbamoyl]-2-o-tolyl-ethyl}-amide] — within 0.2 log units, 7.96
- CCC(C)[C@@H](NC)C(=O)N[C@@H](Cc1cccc2ccccc12)C(=O)NCc1ccc(N)nc1C (stereo partly drawn) [Example 203, (R)-3-Methyl-2-methylamino-pentanoic acid {(S)-1-[(6-amino-2-methyl-pyridin-3-ylmethyl)-carbamoyl]-2-naphthalen-1-yl-ethyl}-amide] — 0.37 log units higher, 8.35
- Cc1cc(C)c(C(=O)N[C@@H](Cc2c[nH]c3ccccc23)C(=O)NCc2ccc(N)nc2)[nH]1 [Example 241, 3,5-Dimethyl-1H-pyrrole-2-carboxylic acid [(S)-1-[(6-amino-pyridin-3-ylmethyl)-carbamoyl]-2-(1H-indol-3-yl)-ethyl]-amide] — 0.44 log units higher, 8.42
- CCC(C)[C@@H](N)C(=O)N[C@@H](Cc1ccc2ccccc2c1)C(=O)NCc1ccc(N)nc1 (stereo partly drawn) [Example 34, (R)-2-Amino-3-methyl-pentanoic acid {(S)-1-[(6-amino-pyridin-3-ylmethyl)-carbamoyl]-2-naphthalen-2-yl-ethyl}-amide] — 0.50 log units higher, 8.48
- CC(C)CN1CCC[C@@H]1C(=O)N[C@@H](Cc1ccc(F)c(F)c1)C(=O)NCc1ccc(N)nc1 [Example 133, (R)-1-Isobutyl-pyrrolidine-2-carboxylic acid [(S)-1-[(6-amino-pyridin-3-ylmethyl)-carbamoyl]-2-(3,4-difluoro-phenyl)-ethyl]-amide] — 0.20 log units lower, 7.78
- CCC(C)[C@H](N)C(=O)N[C@@H](C(=O)NCc1ccc(N)nc1)[C@H](O)c1ccccc1 (stereo partly drawn) [Example 224, (S)-2-Amino-3-methyl-pentanoic acid {(1R,2R)-1-[(6-amino-pyridin-3-ylmethyl)-carbamoyl]-2-hydroxy-2-phenyl-ethyl}-amide] — 0.77 log units lower, 7.21
- CC(C)N1CCC[C@@H]1C(=O)N[C@@H](Cc1ccc(F)cc1)C(=O)NCc1ccc(N)nc1 [Example 119, (R)-1-Isopropyl-pyrrolidine-2-carboxylic acid [(S)-1-[(6-amino-pyridin-3-ylmethyl)-carbamoyl]-2-(4-fluoro-phenyl)-ethyl]-amide] — 0.76 log units higher, 8.74
- Nc1ccc(CNC(=O)[C@H](Cc2csc3ccccc23)NC(=O)c2cc3ccccc3[nH]2)cn1 [Example 335, 1H-Indole-2-carboxylic acid {(S)-1-[(6-amino-pyridin-3-ylmethyl)-carbamoyl]-2-benzo[b]thiophen-3-yl-ethyl}-amide] — within 0.2 log units, 7.80
- Cc1nc(N)ccc1CNC(=O)[C@H](Cc1ccc(Cl)c(Cl)c1)NC(=O)[C@H](N)Cc1cccnc1 [Example 196, (R)-2-Amino-N-[(S)-1-[(6-amino-2-methyl-pyridin-3-ylmethyl)-carbamoyl]-2-(3,4-dichloro-phenyl)-ethyl]-3-pyridin-3-yl-propionamide] — 0.35 log units lower, 7.63
- CCC(C)[C@@H](N)C(=O)N[C@@H](Cc1cccc(C#N)c1)C(=O)NCc1ccc(N)nc1 (stereo partly drawn) [Example 31, (R)-2-Amino-3-methyl-pentanoic acid [(S)-1-[(6-amino-pyridin-3-ylmethyl)-carbamoyl]-2-(3-cyano-phenyl)-ethyl]-amide] — 0.24 log units lower, 7.74
- CCN(CC)[C@@H](CO)C(=O)N[C@@H](CC1CCCCC1)C(=O)NCc1ccc(N)nc1 [Example 389, (S)—N-{(S)-1-[(6-Amino-pyridin-3-ylmethyl)-carbamoyl]-2-cyclohexyl-ethyl}-2-diethylamino-3-hydroxy-propionamide] — 0.61 log units lower, 7.37
- CCC(C)[C@@H](NC)C(=O)N[C@H](Cc1ccc(Cl)c(Cl)c1)C(=O)NCc1ccc(N)nc1C (stereo partly drawn) [Example 188, (2R)-3-Methyl-2-methylamino-pentanoic acid [(R)-1-[(6-amino-2-methyl-pyridin-3-ylmethyl)-carbamoyl]-2-(3,4-dichloro-phenyl)-ethyl]-amide] — 0.94 log units higher, 8.92
- Nc1ccc(CNC(=O)[C@H](Cc2cccc(F)c2)NC(=O)c2ncc[nH]2)cn1 [Example 288, 1H-Imidazole-2-carboxylic acid [(S)-1-[(6-amino-pyridin-3-ylmethyl)-carbamoyl]-2-(3-fluoro-phenyl)-ethyl]-amide] — 0.95 log units lower, 7.03
- CC(C)N(C)[C@@H](C)C(=O)N[C@@H](C(=O)NCc1ccc(N)nc1)C(O)C1CCCCC1 (stereo partly drawn) [Example 435, (S)—N-{(R)-1-[(6-Amino-pyridin-3-ylmethyl)-carbamoyl]-2-cyclohexyl-2-hydroxy-ethyl}-2-(isopropyl-methyl-amino)-propionamide] — 0.32 log units higher, 8.30
- Cc1nc(N)ccc1CNC(=O)[C@H](Cc1ccc(Cl)c(Cl)c1)NC(=O)[C@H](N)C1CCCCC1 [Example 198, (S)-2-((R)-2-Amino-2-cyclohexyl-acetylamino)-N-(6-amino-2-methyl-pyridin-3-ylmethyl)-3-(3,4-dichloro-phenyl)-propionamide] — 0.43 log units lower, 7.55
- Cc1cc(C)c(C(=O)N[C@@H](Cc2ccccc2C(F)(F)F)C(=O)NCc2ccc(N)nc2)[nH]1 [Example 240, 3,5-Dimethyl-1H-pyrrole-2-carboxylic acid [(S)-1-[(6-amino-pyridin-3-ylmethyl)-carbamoyl]-2-(2-trifluoromethyl-phenyl)-ethyl]-amide] — 0.84 log units higher, 8.82
- Cc1nc(N)ccc1CNC(=O)[C@@H](Cc1ccc(Cl)c(Cl)c1)NC(=O)[C@H]1CCCN1 [Example 189, (R)-Pyrrolidine-2-carboxylic acid [(R)-1-[(6-amino-2-methyl-pyridin-3-ylmethyl)-carbamoyl]-2-(3,4-dichloro-phenyl)-ethyl]-amide] — 0.40 log units higher, 8.38
- CCC(C)[C@@H](NC)C(=O)N[C@@H](Cc1ccc(O)cc1)C(=O)NCc1ccc(N)nc1 (stereo partly drawn) [Example 47, (R)-3-Methyl-2-methylamino-pentanoic acid [(S)-1-[(6-amino-pyridin-3-ylmethyl)-carbamoyl]-2-(4-hydroxy-phenyl)-ethyl]-amide] — 1.48 log units lower, 6.50
- Cc1cc(C)c(C(=O)N[C@@H](Cc2ccc(Cl)cc2)C(=O)NCc2ccc(N)nc2)[nH]1 [Example 246, 3,5-Dimethyl-1H-pyrrole-2-carboxylic acid [(S)-1-[(6-amino-pyridin-3-ylmethyl)-carbamoyl]-2-(4-chloro-phenyl)-ethyl]-amide] — 0.48 log units higher, 8.46
- CC(C)(C)[C@H](N)C(=O)N[C@@H](C(=O)NCc1ccc(N)nc1)C(C1CCCCC1)C1CCCCC1 [Example 217, (S)-2-Amino-N-{(R)-1-[(6-amino-pyridin-3-ylmethyl)-carbamoyl]-2,2-dicyclohexyl-ethyl}-3,3-dimethyl-butyramide] — 0.45 log units lower, 7.53
